Values of other authors as cited in publication PMC5523132 (ACS chemical biology, 2016).

Conditions: cited from earlier work

Molecule	half-life (adult rats)	clearance half-life (in the rat)
O=C([O-])CN1CCN(CC(=O)[O-])CCN(CC(=O)[O-])CCN(CC(=O)[O-])CC1.[Gd+3] [[Gd•DOTA], reference compound]	roughly 19 minutes	–
RSA: rat serum albumin	–	approx. 48 hours
